Measurements as given in paper PMC4857087, “A potential adjuvant chemotherapeutics, 18β-glycyrrhetinic acid, inhibits renal tubular epithelial cells apoptosis via enhancing BMP-7 epigenetically through targeting HDAC2” (Scientific Reports, 2016).

Columns and labels:
[1] = molecular target: HDAC2 (Homo sapiens, UniProt Q92769); test: SPR (Biacore T200, HDAC2 immobilized on CM5 chip, […] Langmuir fit); assay type: binding
[2] = system: HK2; test: cells; parameters: species or system mTEC; antiproliferative activity on renal tubular epithelial cells, 48 h; details: Homo sapiens, HK-2, 48 h
Method: GA could be transformed into 18β-glycyrrhetinic acid (18βGA) via biotransformation. At first, compounds GA and 18βGA were evaluated for their antiproliferative activities against mTEC and HK2 cell lines. The cells were allowed to proliferate in the presence of tested material for 48 h, and the results were reported in terms of IC50 values (Supplementary Table S2). […] Thus we chose GA 0.05, 0.1, 0.2, 0.4, 0.8 mM and 18βGA 2.5, 5, 10, 20, 30 μM to further evaluate the roles on KIM-1. […] Thus, 18βGA was chosen to discuss the mechanisms in AKI induced by CP. Cisplatin (CP), glycyrrhizic acid ammonium salt (GA), 18β-glycyrrhetinic acid (18βGA), Dimethyl sulfoxide (DMSO), MTT (3-(4, 5-dimethylthiazol-2-yl)-2, 5-diphenyltetrazoliumbromide) and all other chemicals were obtained from Sigma-Aldrich (St. Louis, MO, USA). BMP-7, KIM-1, Bcl-2 and Bax antibodies were purchased from Santa Cruz (CA, USA). β-actin antibody and secondary antibodies for goat anti-rabbit IgG HRP and rabbit anti-goat IgG HRP were purchased from Bioworld Technology (Nanjing, China). Creatinine (Cr) and Blood Urea Nitrogen (BUN) assay kit were purchased from Siemens (NY, USA).

Chain of HDAC2 (Q92769 whole entry): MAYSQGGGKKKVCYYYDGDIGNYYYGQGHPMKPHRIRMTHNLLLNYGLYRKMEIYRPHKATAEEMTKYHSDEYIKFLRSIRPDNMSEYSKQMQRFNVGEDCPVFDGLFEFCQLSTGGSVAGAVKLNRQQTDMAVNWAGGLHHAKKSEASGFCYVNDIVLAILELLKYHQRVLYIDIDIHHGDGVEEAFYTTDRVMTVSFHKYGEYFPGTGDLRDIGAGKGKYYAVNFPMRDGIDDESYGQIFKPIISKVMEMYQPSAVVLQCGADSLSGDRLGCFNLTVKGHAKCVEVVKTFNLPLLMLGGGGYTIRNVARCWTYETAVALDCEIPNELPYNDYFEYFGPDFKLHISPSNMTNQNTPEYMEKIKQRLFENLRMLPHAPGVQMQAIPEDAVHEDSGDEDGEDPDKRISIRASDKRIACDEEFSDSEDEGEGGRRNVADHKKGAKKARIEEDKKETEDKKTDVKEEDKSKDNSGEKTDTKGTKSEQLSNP

- Kd [1]: 0.613 µM
Compound: CC1(C)[C@@H](O)CC[C@]2(C)[C@H]3C(=O)C=C4[C@@H]5C[C@@](C)(C(=O)O)CC[C@]5(C)CC[C@@]4(C)[C@]3(C)CC[C@@H]12 [18βGA, 18β-glycyrrhetinic acid]
- IC50 [2]: 0.073 mM
